These results are taken from patent US20260098037A1, “COMPOUND CONTAINING MULTI-FUSED RING STRUCTURE” (Chia Tai Tianqing Pharmaceutical Group Co., Ltd., priority 2023, published 2026).

One series concerns the target GLP1R (Homo sapiens, UniProt P43220). The experiment in a line: In vitro cellular cAMP expression activity assay (CRE-luciferase reporter). The following applies: HEK293/CRE-Luc/GLP1R cells, 6 h incubation, luciferase luminescence; read-out: HEK293/CRE-Luc/GLP-1R EC50. Type of series: cell-based. How it is done: HEK293/CRE-Luc/GLP1R cells (manufacturer: GenScript Biotech Corporation) in a good growth state were taken, washed with PBS, and digested with pancreatin. The digestion was terminated with a complete medium. The cells were collected into a centrifuge tube, adjusted to a cell density of 4×10^5 cells/mL using a DMEM+2% FBS medium, seeded in a 96-well plate (100 μL/well), and incubated at 37° C. for 1 h. After 1 h, the compounds were added using a nanoliter pipettor such that the final concentrations of the compounds were 10 nM-0.0006 nM. The compounds were added in duplicate, and a control was set. After the cells were incubated in a cell incubator for another 6 h, a detection reagent Luciferase (manufacturer: Vazyme Biotech, 50 μL/well) was added. The plate was left to stand at room temperature for 3 min to fully lyse the cells, and the luminescence was detected on a PerkinElmer Envision microplate reader. A dose-response curve was fitted by four-parameter analysis, and the EC50 was calculated.
(A reporter such as luciferase makes a cellular process visible.)

The nature of series [1]: In vitro stability assay in liver microsome (HLM). The following applies: liver microsome 0.5 mg/mL, NADPH+MgCl2, PBS pH 7.4, 1 h. Format: in vitro ADME, human. How it is done: (§1) Liver microsome incubation samples were prepared by mixing a PBS buffer (pH 7.4), a liver microsome solution (0.5 mg/mL), a test compound, and an NADPH+MgCl2 solution, and incubated at […] and 300 rpm for 1 h. Zero-hour samples were prepared by mixing a PBS buffer (pH 7.4), a liver microsome solution (0.5 mg/mL), and a test compound. An acetonitrile solution containing an internal standard was added to the samples, and supernatants were prepared by protein precipitation, diluted, and then assayed by LC/MS/MS.

A short description of series [2]: In vitro stability assay in liver microsome (MLM). The settings on record: liver microsome 0.5 mg/mL, NADPH+MgCl2, PBS pH 7.4, 1 h. Type of series: in vitro ADME, mouse. How it is done: as §1

GLP1R, sequence (P43220 24-463): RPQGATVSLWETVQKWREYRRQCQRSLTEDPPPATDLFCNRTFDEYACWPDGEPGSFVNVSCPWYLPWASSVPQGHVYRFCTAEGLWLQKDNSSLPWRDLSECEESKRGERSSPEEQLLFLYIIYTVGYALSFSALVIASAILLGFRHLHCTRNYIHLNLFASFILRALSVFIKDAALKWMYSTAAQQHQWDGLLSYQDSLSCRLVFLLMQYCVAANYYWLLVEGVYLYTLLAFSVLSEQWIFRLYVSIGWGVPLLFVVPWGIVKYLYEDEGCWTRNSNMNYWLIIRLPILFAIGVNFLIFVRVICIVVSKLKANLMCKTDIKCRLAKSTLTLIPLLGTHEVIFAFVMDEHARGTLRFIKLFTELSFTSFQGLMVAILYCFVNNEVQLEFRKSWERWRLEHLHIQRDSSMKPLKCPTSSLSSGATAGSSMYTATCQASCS

As for `Cc1cc(-n2nc3c(c2-n2ccn(-c4ccc5c(c4)C4(CC4)C(=O)N5C)c2=O)[C@H](C)N(C(=O)c2cc4cc([C@H]5CCOC(C)(C)C5)ccc4n2[C@@]2(c4noc(=O)[nH]4)C[C@@H]2C)CC3)cc(C)c1F` [Compound 1-A], on GLP1R, the EC50 is less than 0.5 nM.
On the same count and under the same terms, for `Cc1cc(-n2nc3c(c2-n2ccn(-c4ccc5c(c4)N(C4CC4)C(=O)C54CC4)c2=O)[C@H](C)N(C(=O)c2cc4cc([C@H]5CCOC(C)(C)C5)ccc4n2[C@@]2(c4noc(=O)[nH]4)C[C@@H]2C)CC3)cc(C)c1F` [Compound 17] the value was less than 0.5 nM.
For the compound `Cc1cc(-n2nc3c(c2-n2ccn(-c4ccc5nc6n(c5c4)CCC6)c2=O)[C@H](C)N(C(=O)c2cc4cc([C@H]5CCOC(C)(C)C5)ccc4n2[C@@]2(c4noc(=O)[nH]4)C[C@@H]2C)CC3)cc(C)c1F` [Compound 8], the EC50 on GLP1R was less than 0.5 nM.
Still for that read-out and setting: the value for `Cc1cc(-n2nc3c(c2-n2ccn(-c4cc(F)c5c(c4)N(C)C(=O)C54CC4)c2=O)[C@H](C)N(C(=O)c2cc4cc([C@H]5CCOC(C)(C)C5)ccc4n2[C@@]2(c4noc(=O)[nH]4)C[C@@H]2C)CC3)cc(C)c1F` [Compound 16] was less than 0.5 nM; that for `Cc1cc(-n2nc3c(c2-n2ccn(-c4ccc5c(c4)C4(CC4)C(=O)N5C)c2=O)C(C)N(C(=O)c2cc4cc(C5CCOC(C)(C)C5)ccn4c2C2(c4noc(=O)[nH]4)CC2C)CC3)cc(C)c1F` (single isomer, unassigned) [Compound 22-A] was less than 0.5 nM; that for `Cc1cc(-n2nc3c(c2-n2ccn(-c4ccc5nc6n(c5c4)CCN(C)C6)c2=O)[C@H](C)N(C(=O)c2cc4cc([C@H]5CCOC(C)(C)C5)ccc4n2[C@@]2(c4noc(=O)[nH]4)C[C@@H]2C)CC3)cc(C)c1F` [Compound 7] was less than 0.5 nM.
In the case of `C[C@H]1c2c(nn(-c3ccc(F)c(C4CC4)c3)c2-n2ccn(-c3ccc4c(c3)N(C)C(=O)C43CC3)c2=O)CCN1C(=O)c1cc2cc(C3CCOC(C)(C)C3)ccc2n1C1(c2noc(=O)[nH]2)CC1` (single isomer, unassigned) [Compound 20], the EC50 on GLP1R is less than 0.5 nM. The “HLM Remaining (T = 60 min)” value in series [1] is 95.39%. Further, the “MLM Remaining (T = 60 min)” value in series [2] is listed as 77.59%.
For the compound `C[C@H]1c2c(nn(-c3ccc(F)c(C4CC4)c3)c2-n2ccn(-c3ccc4c(c3)C3(CC3)C(=O)N4C)c2=O)CCN1C(=O)c1cc2cc([C@H]3CCOC(C)(C)C3)ccn2c1[C@@]1(c2noc(=O)[nH]2)C[C@@H]1C` [Compound 24], on GLP1R, the EC50 is less than 0.5 nM.
Still for that read-out and setting: for `C[C@H]1c2c(nn(-c3ccc(F)c(C4CC4)c3)c2-n2ccn(-c3ccc4c(c3)CC3(CC3)C4=O)c2=O)CCN1C(=O)c1cc2cc([C@H]3CCOC(C)(C)C3)ccc2n1[C@@]1(c2noc(=O)[nH]2)C[C@@H]1C` [Compound 26] the value was less than 0.5 nM.
Take `Cc1cc(-n2nc3c(c2-n2ccn(-c4ccc5c(c4)N(C)C(=O)C54CC4)c2=O)[C@H](C)N(C(=O)c2cc4cc([C@H]5CCOC(C)(C)C5)ccc4n2C2(c4noc(=O)[nH]4)CC2)CC3)cc(C)c1F` [Compound 19]: at GLP1R, the EC50 was less than 0.5 nM. Also, the “HLM Remaining (T = 60 min)” value in series [1] is 92.40%. Further, in series [2], the “MLM Remaining (T = 60 min)” value was 77.17%.
On to `COCC#Cc1ccc(-n2ccn(-c3c4c(nn3-c3cc(C)c(F)c(C)c3)CCN(C(=O)c3cc5cc([C@H]6CCOC(C)(C)C6)ccc5n3[C@@]3(c5noc(=O)[nH]5)C[C@@H]3C)[C@H]4C)c2=O)c(F)c1` [Compound 10-A], for which the EC50 at GLP1R was less than 0.5 nM.
Same read-out and setting: the value for `Cc1cc(-n2nc3c(c2-n2ccn(-c4ccc5c(c4)CC4(COC4)C5)c2=O)[C@H](C)N(C(=O)c2cc4cc([C@H]5CCOC(C)(C)C5)ccc4n2[C@@]2(c4noc(=O)[nH]4)C[C@@H]2C)CC3)cc(C)c1F` [Compound 12-A] was less than 0.5 nM.
In the case of `[2H]C([2H])([2H])N1C(=O)C2(CC2)c2ccc(-n3ccn(-c4c5c(nn4-c4cc(C)c(F)c(C)c4)CCN(C(=O)c4cc6cc([C@H]7CCOC(C)(C)C7)ccc6n4[C@@]4(c6noc(=O)[nH]6)C[C@@H]4C)[C@H]5C)c3=O)cc21` [Compound 13], the EC50 at GLP1R is less than 0.5 nM. The “HLM Remaining (T = 60 min)” value in series [1] came out at 84.57%. Besides, in series [2], the “MLM Remaining (T = 60 min)” value turned out to be 84.44%.
As to `Cc1cc(-n2nc3c(c2-n2ccn(-c4ccc5c(c4)C(=O)C4(CC4)C5)c2=O)[C@H](C)N(C(=O)c2cc4cc([C@H]5CCOC(C)(C)C5)ccc4n2[C@@]2(c4noc(=O)[nH]4)C[C@@H]2C)CC3)cc(C)c1F` [Compound 9-A], the EC50 at GLP1R is less than 0.5 nM.
Turning to `Cc1cc(-n2nc3c(c2-n2ccn(-c4ccc5c(c4)C4(CC4)C(=O)N5C)c2=O)[C@H](C)N(C(=O)c2cc4cc([C@H]5CCOC(C)(C)C5)ccc4n2C2(c4noc(=O)[nH]4)CC2)CC3)cc(C)c1F` [Compound 4], the EC50 at GLP1R was less than 0.5 nM. Also, in series [1], the “HLM Remaining (T = 60 min)” value is recorded as 91.85%. For the same compound, the “MLM Remaining (T = 60 min)” value in series [2] came out at 95.46%.
As to `C[C@H]1c2c(nn(-c3ccc(F)c(C4CC4)c3)c2-n2ccn(-c3ccc4c(c3)C3(CC3)C(=O)N4C)c2=O)CCN1C(=O)c1cc2cc(C3CCOC(C)(C)C3)ccc2n1[C@@]1(c2nc(=O)o[nH]2)C[C@@H]1C` (single isomer, unassigned) [Compound 6], the EC50 at GLP1R was less than 0.5 nM.
On the same count and under the same terms, for `Cc1cc(-n2nc3c(c2-n2ccn(-c4ccc5c(c4)C4(CCC4)C(=O)N5C)c2=O)[C@H](C)N(C(=O)c2cc4cc(C5CCOC(C)(C)C5)ccc4n2[C@@]2(c4nc(=O)o[nH]4)C[C@@H]2C)CC3)cc(C)c1F` (single isomer, unassigned) [Compound 21] the value was less than 0.5 nM.
